Measured values published in PMC11905058, “Novel Leech Antimicrobial Peptides, Hirunipins: Real‐Time 3D Monitoring of Antimicrobial and Antibiofilm Mechanisms Using Optical Diffraction Tomography” (Advanced Science, 2025).
Like-named read-outs stand apart in the source and are kept apart here. Residues, ends and D or L forms follow the SMILES beside them. No end group written: not given here.

Columns and labels:
Type in all cases: cell-based
[1] = test system: Escherichia coli [KCTC 1682]
Method: (§1) The MICs of the peptides were measured by the Clinical and Laboratory Standards Institute (CLSI) broth microdilution method, as outlined in a previous study.^[ [26], [27] ^]
(§2) Minimal Inhibitory Concentrations (MICs): Bacteria were grown to mid-logarithmic phase and diluted in Mueller-Hinton broth (MHB) (Difco). The bacterial suspension (1×10^6 CFU/well) was added to a 96-well microtiter plate along with a two-fold serial dilution of samples. The plate was incubated at 37 °C for 24 hours and the bacterial growth inhibition was assessed by measuring the optical density using an ELISA plate reader. The minimum inhibitory concentration (MIC) was defined as the lowest concentration of samples that prevented visible bacterial growth.

[2] = test system: Staphylococcus aureus [KCTC1621]
Method: as §1, §2

[3] = test system: Pseudomonas aeruginosa [KCTC 1637]
Method: as §1, §2

[4] = test system: Staphylococcus epidermidis [KCTC 1917]
Method: as §1, §2

[5] = CLSI broth microdilution in MHB, 1×10^6 CFU/well, 37 °C, 24 h, optical density

CC(C)C[C@H](NC(=O)[C@H](CS)NC(=O)[C@@H](NC(=O)CNC(=O)[C@H](CC(=O)O)NC(=O)[C@H](CCC(=O)O)NC(=O)[C@H](CCCCN)NC(=O)[C@H](CCCCN)NC(=O)[C@H](CS)NC(=O)[C@@H](NC(=O)[C@H](CCCNC(=N)N)NC(=O)[C@H](CCCNC(=N)N)NC(=O)[C@@H](N)CCCNC(=N)N)[C@@H](C)O)[C@@H](C)O)C(=O)NCC(=O)N[C@@H](CCCNC(=N)N)C(=O)N[C@@H](CCCCN)C(=O)N[C@H](C(=O)N[C@@H](CCC(N)=O)C(=O)N[C@@H](Cc1ccc(O)cc1)C(=O)N[C@@H](CCCCN)C(=O)N[C@@H](CCCCN)C(=O)N[C@@H](Cc1ccc(O)cc1)C(=O)N[C@@H](CC(C)C)C(=O)N[C@@H](CCC(N)=O)C(=O)N[C@@H](CCCCN)C(=O)N[C@@H](CCCCN)C(N)=O)C(C)C [LP3] (H-RRRTCKKEDGTCLGRKVQYKKYLQKK-NH2; N-terminus and C-terminus assumed)
>128 µg/mL: Minimum inhibitory concentration (MIC), Escherichia coli [KCTC 1682] ([1]; KCTC 1682, 24 h) | Minimum inhibitory concentration (MIC), Staphylococcus aureus [KCTC1621] ([2]; KCTC1621, 24 h) | Minimum inhibitory concentration (MIC), Pseudomonas aeruginosa [KCTC 1637] ([3]; KCTC 1637, 24 h) | Minimum inhibitory concentration (MIC), Staphylococcus epidermidis [KCTC 1917] ([4]; KCTC 1917, 24 h)

CC(C)C[C@H](NC(=O)[C@H](Cc1ccc(O)cc1)NC(=O)[C@H](CCCCN)NC(=O)[C@H](CCCNC(=N)N)NC(=O)[C@H](CCCNC(=N)N)NC(=O)[C@H](CCC(N)=O)NC(=O)[C@@H](NC(=O)[C@H](CC(N)=O)NC(=O)[C@H](CCCNC(=N)N)NC(=O)CNC(=O)[C@@H](NC(=O)[C@H](CS)NC(=O)[C@@H]1CCCN1C(=O)[C@H](CCCCN)NC(=O)[C@H](CO)NC(=O)[C@H](CC(N)=O)NC(=O)[C@H](CC(C)C)NC(=O)[C@H](CCCCN)NC(=O)[C@H](CS)NC(=O)[C@H](CCC(N)=O)NC(=O)[C@H](CCCNC(=N)N)NC(=O)[C@H](CCC(=O)O)NC(=O)[C@H](CCCNC(=N)N)NC(=O)[C@@H](NC(=O)[C@H](Cc1c[nH]c2ccccc12)NC(=O)[C@H](Cc1ccc(O)cc1)NC(=O)CNC(=O)[C@@H](NC(=O)[C@@H](NC(=O)[C@H](CC(=O)O)NC(=O)[C@@H](N)CCCCN)C(C)C)[C@@H](C)O)C(C)C)C(C)C)[C@@H](C)O)C(=O)N[C@@H](CC(N)=O)C(=O)N[C@@H](CCCCN)C(N)=O [LP4] (H-KDVTGYWVRERQCKLNSKPCVGRNTQRRKYLNK-NH2; N-terminus and C-terminus assumed)
>128 µg/mL: Minimum inhibitory concentration (MIC), Escherichia coli [KCTC 1682] ([1]; KCTC 1682, 24 h) | Minimum inhibitory concentration (MIC), Staphylococcus aureus [KCTC1621] ([2]; KCTC1621, 24 h) | Minimum inhibitory concentration (MIC), Pseudomonas aeruginosa [KCTC 1637] ([3]; KCTC 1637, 24 h) | Minimum inhibitory concentration (MIC), Staphylococcus epidermidis [KCTC 1917] ([4]; KCTC 1917, 24 h)

CC[C@H](C)[C@H](NC(=O)[C@H](CO)NC(=O)[C@H](CCCNC(=N)N)NC(=O)[C@H](C)N)C(=O)N[C@@H](CCCCN)C(=O)N[C@@H](CCCCN)C(=O)N[C@H](C(=O)N[C@H](C(=O)N[C@@H](Cc1ccccc1)C(=O)N[C@@H](CO)C(=O)N[C@@H](CO)C(=O)N[C@@H](CO)C(=O)N[C@@H](CO)C(=O)N[C@@H](CCCNC(=N)N)C(=O)N[C@H](C(=O)N[C@@H](CS)C(=O)N1CCC[C@H]1C(=O)N1CCC[C@H]1C(=O)N[C@@H](CC(C)C)C(=O)N[C@@H](CCCCN)C(=O)N[C@@H](CCSC)C(=O)N[C@@H](CC(C)C)C(=O)N[C@@H](CCCCN)C(=O)N[C@@H](CC(C)C)C(=O)N[C@@H](CCCNC(=N)N)C(=O)N1CCC[C@H]1C(=O)N[C@@H](CS)C(=O)N[C@@H](Cc1ccccc1)C(=O)N[C@@H](CCCCN)C(=O)N[C@@H](CCCCN)C(=O)N[C@H](C(=O)N1CCC[C@H]1C(=O)N[C@@H](CCCCN)C(=O)N[C@@H](CC(C)C)C(=O)N[C@@H](CC(=O)O)C(=O)NCC(=O)N[C@@H](CCC(N)=O)C(=O)O)C(C)C)C(C)C)[C@@H](C)CC)C(C)C [LP15] (H-ARSIKKVIFSSSSRVCPPLKMLKLRPCFKKVPKLDGQ-OH; N-terminus and C-terminus assumed)
>128 µg/mL: Minimum inhibitory concentration (MIC), Escherichia coli [KCTC 1682] ([1]; KCTC 1682, 24 h) | Minimum inhibitory concentration (MIC), Staphylococcus aureus [KCTC1621] ([2]; KCTC1621, 24 h) | Minimum inhibitory concentration (MIC), Pseudomonas aeruginosa [KCTC 1637] ([3]; KCTC 1637, 24 h) | Minimum inhibitory concentration (MIC), Staphylococcus epidermidis [KCTC 1917] ([4]; KCTC 1917, 24 h)

CC[C@H](C)[C@H](NC(=O)[C@@H]1CCCN1C(=O)[C@H](Cc1ccccc1)NC(=O)[C@H](CCC(N)=O)NC(=O)[C@H](CO)NC(=O)[C@H](CCCNC(=N)N)NC(=O)[C@@H](N)Cc1ccccc1)C(=O)N[C@@H](CS)C(=O)N[C@@H](CCCCN)C(=O)N[C@@H](CC(N)=O)C(=O)N[C@@H](CC(C)C)C(=O)N[C@H](C(=O)N[C@@H](CC(N)=O)C(=O)N[C@@H](Cc1c[nH]cn1)C(=O)N[C@H](C(=O)N[C@@H](CCCCN)C(=O)N[C@@H](Cc1ccccc1)C(=O)N[C@H](C(=O)N[C@@H](CS)C(=O)N[C@@H](CCC(N)=O)C(=O)N[C@@H](CCCCN)C(=O)N[C@@H](CCCCN)C(=O)N1CCC[C@H]1C(=O)N[C@@H](CC(C)C)C(=O)N[C@@H](CO)C(=O)N[C@@H](CCCCN)C(=O)N[C@@H](CC(C)C)C(=O)N[C@@H](CCSC)C(=O)N[C@@H](CCCCN)C(=O)N[C@@H](CS)C(=O)N[C@@H](CCCCN)C(=O)N[C@@H](CCCCN)C(=O)N[C@@H](C)C(=O)N[C@@H](CC(C)C)C(=O)N[C@@H](CC(=O)O)C(=O)N[C@@H](CCCNC(=N)N)C(=O)O)C(C)C)[C@@H](C)O)C(C)C [LP16] (H-FRSQFPICKNLVNHTKFVCQKKPLSKLMKCKKALDR-OH)
>128 µg/mL: Minimum inhibitory concentration (MIC), Escherichia coli [KCTC 1682] ([1]; KCTC 1682, 24 h) | Minimum inhibitory concentration (MIC), Staphylococcus aureus [KCTC1621] ([2]; KCTC1621, 24 h) | Minimum inhibitory concentration (MIC), Pseudomonas aeruginosa [KCTC 1637] ([3]; KCTC 1637, 24 h) | Minimum inhibitory concentration (MIC), Staphylococcus epidermidis [KCTC 1917] ([4]; KCTC 1917, 24 h)

FGQKVNCILNFICYKYLRI LV [LP2, putative AMP predicted from the Hirudo nipponia transcriptome]
>128 µg/mL: Minimum inhibitory concentration (MIC), Escherichia coli [KCTC 1682] [1, 5] | Minimum inhibitory concentration (MIC), Staphylococcus aureus [KCTC1621] [2, 5] | Minimum inhibitory concentration (MIC), Pseudomonas aeruginosa [KCTC 1637] [3, 5] | Minimum inhibitory concentration (MIC), Staphylococcus epidermidis [KCTC 1917] [4, 5]

IIIIKMHKTRKEKTQSILSAPVGLLTTL [LP7]
>128 µg/mL: Minimum inhibitory concentration (MIC), Escherichia coli [KCTC 1682] ([1]; KCTC 1682, 24 h) | Minimum inhibitory concentration (MIC), Staphylococcus aureus [KCTC1621] ([2]; KCTC1621, 24 h) | Minimum inhibitory concentration (MIC), Pseudomonas aeruginosa [KCTC 1637] ([3]; KCTC 1637, 24 h) | Minimum inhibitory concentration (MIC), Staphylococcus epidermidis [KCTC 1917] ([4]; KCTC 1917, 24 h)

KKLLKKLEKISKKKKKDKKRGRGSPMTSYAILYDGA [LP10]
>128 µg/mL: Minimum inhibitory concentration (MIC), Escherichia coli [KCTC 1682] ([1]; KCTC 1682, 24 h) | Minimum inhibitory concentration (MIC), Staphylococcus aureus [KCTC1621] ([2]; KCTC1621, 24 h) | Minimum inhibitory concentration (MIC), Pseudomonas aeruginosa [KCTC 1637] ([3]; KCTC 1637, 24 h) | Minimum inhibitory concentration (MIC), Staphylococcus epidermidis [KCTC 1917] ([4]; KCTC 1917, 24 h)

KLTPKPAKKVKKVVKF [LP1]
>128 µg/mL: Minimum inhibitory concentration (MIC), Escherichia coli [KCTC 1682] ([1]; KCTC 1682, 24 h) | Minimum inhibitory concentration (MIC), Staphylococcus aureus [KCTC1621] ([2]; KCTC1621, 24 h) | Minimum inhibitory concentration (MIC), Pseudomonas aeruginosa [KCTC 1637] ([3]; KCTC 1637, 24 h) | Minimum inhibitory concentration (MIC), Staphylococcus epidermidis [KCTC 1917] ([4]; KCTC 1917, 24 h)

LLAHVSKGFKLSMQKSKKPSLPIKT-NH2 [LP5]
>128 µg/mL: Minimum inhibitory concentration (MIC), Escherichia coli [KCTC 1682] ([1]; KCTC 1682, 24 h) | Minimum inhibitory concentration (MIC), Staphylococcus aureus [KCTC1621] ([2]; KCTC1621, 24 h) | Minimum inhibitory concentration (MIC), Pseudomonas aeruginosa [KCTC 1637] ([3]; KCTC 1637, 24 h) | Minimum inhibitory concentration (MIC), Staphylococcus epidermidis [KCTC 1917] ([4]; KCTC 1917, 24 h)

LNTPRPELSISQRLLIKNFILII-NH2 [LP14]
>128 µg/mL: Minimum inhibitory concentration (MIC), Escherichia coli [KCTC 1682] ([1]; KCTC 1682, 24 h) | Minimum inhibitory concentration (MIC), Staphylococcus aureus [KCTC1621] ([2]; KCTC1621, 24 h) | Minimum inhibitory concentration (MIC), Pseudomonas aeruginosa [KCTC 1637] ([3]; KCTC 1637, 24 h) | Minimum inhibitory concentration (MIC), Staphylococcus epidermidis [KCTC 1917] ([4]; KCTC 1917, 24 h)

LSKGGFKGKPERAMAHHLKNIRKKLSKSIMKS [LP6]
>128 µg/mL: Minimum inhibitory concentration (MIC), Escherichia coli [KCTC 1682] ([1]; KCTC 1682, 24 h) | Minimum inhibitory concentration (MIC), Staphylococcus aureus [KCTC1621] ([2]; KCTC1621, 24 h) | Minimum inhibitory concentration (MIC), Pseudomonas aeruginosa [KCTC 1637] ([3]; KCTC 1637, 24 h) | Minimum inhibitory concentration (MIC), Staphylococcus epidermidis [KCTC 1917] ([4]; KCTC 1917, 24 h)

MANPVNSIKRIIKKLKKERKCKPNL [LP18]
>128 µg/mL: Minimum inhibitory concentration (MIC), Escherichia coli [KCTC 1682] ([1]; KCTC 1682, 24 h) | Minimum inhibitory concentration (MIC), Staphylococcus aureus [KCTC1621] ([2]; KCTC1621, 24 h) | Minimum inhibitory concentration (MIC), Pseudomonas aeruginosa [KCTC 1637] ([3]; KCTC 1637, 24 h) | Minimum inhibitory concentration (MIC), Staphylococcus epidermidis [KCTC 1917] ([4]; KCTC 1917, 24 h)

NITDYNKKKVRLLPRFIFPLG-NH2 [LP13]
>128 µg/mL: Minimum inhibitory concentration (MIC), Escherichia coli [KCTC 1682] ([1]; KCTC 1682, 24 h) | Minimum inhibitory concentration (MIC), Staphylococcus aureus [KCTC1621] ([2]; KCTC1621, 24 h) | Minimum inhibitory concentration (MIC), Pseudomonas aeruginosa [KCTC 1637] ([3]; KCTC 1637, 24 h) | Minimum inhibitory concentration (MIC), Staphylococcus epidermidis [KCTC 1917] ([4]; KCTC 1917, 24 h)

PKKVRKSFKKLRNFSNKNSNIYGLPA [LP17]
>128 µg/mL: Minimum inhibitory concentration (MIC), Escherichia coli [KCTC 1682] ([1]; KCTC 1682, 24 h) | Minimum inhibitory concentration (MIC), Staphylococcus aureus [KCTC1621] ([2]; KCTC1621, 24 h) | Minimum inhibitory concentration (MIC), Pseudomonas aeruginosa [KCTC 1637] ([3]; KCTC 1637, 24 h) | Minimum inhibitory concentration (MIC), Staphylococcus epidermidis [KCTC 1917] ([4]; KCTC 1917, 24 h)
